Experiments:
Phytophthora [1] = assay: D-3: Action against Phytophthora on potato plants (residual-protective and systemic action); type: in vivo; conditions: potato plants (Bintje variety), 0.02% active ingredient; sprayed or watered (systemic), infected after 48 hours, evaluated after 4 days
Method: ID-3: Action Against Phytophthora on Potato Plants
(§1) a) Residual-protective Action
(§2) 2-3 week old potato plants (Bintje variety) are sprayed with a spray mixture (0.02% active ingredient) prepared from a wettable powder formulation of the test compound. After 48 hours, the treated plants are infected with a sporangia suspension of the fungus. Fungus infestation is evaluated after incubation of the infected plants for 4 days at 90-100% relative humidity and +20° C.
as §2, with “watered” for “sprayed”, “ingredient based on the volume of the soil)” for “ingredient)”, “compound. […]” for “compound.”, “C. Fungal infestation is effectively controlled with compounds of Tables 1 to 47.” for “C.”

Plasmopara viticola = assay: D-1: Action against Plasmopara viticola on vines (residual-protective and residual-curative action); type: in vivo; conditions: vine seedlings, spray mixture 0.02% active ingredient; protective (infected after 24 hours) or curative (sprayed 24 hours after infection); evaluated after 6 days
Method: D-1: Action Against Plasmopara viticola on Vines a) Residual-Protective Action
Vine seedlings are sprayed at the 4- to 5-leaf stage with a spray mixture (0.02% active ingredient) prepared from a wettable powder formulation of the test compound. After 24 hours, the treated plants are infected with a sporangia suspension of the fungus. Fungus infestation is evaluated after incubation for 6 days at 95-100% relative humidity and +20° C. […]
b) Residual-curative Action
Vine seedlings are infected at the 4- to 5-leaf stage with a sporangia suspension of the fungus. After incubation for 24 hours in a humidity chamber at 95-100% relative humidity and +20° C., the infected plants are dried and sprayed with a spray mixture (0.02% active ingredient) prepared from a wettable powder formulation of the test compound. After the spray coating has dried, the treated plants are placed in the humidity chamber again.
Fungus infestation is evaluated 6 days after infection.

Phytophthora [2] = assay: D-2: Action against Phytophthora on tomato plants (residual-protective and systemic action); type: in vivo; conditions: 0.02% active ingredient, sprayed (infected after 48 hours, evaluated after 5 days) or watered, systemic (infected after 96 hours, evaluated after 4 days)
Method: D-2: Action Against Phytophthora on Tomato Plants
as §1
(§3) After a cultivation period of 3 weeks, tomato plants are sprayed with a spray mixture (0.02% active ingredient) prepared from a wettable powder formulation of the test compound. After 48 hours, the treated plants are infected with a sporangia suspension of the fungus. Fungus infestation is evaluated after incubation of the infected plants for 5 days at 90-100% relative humidity and +20° C.
as §3, with “watered” for “sprayed”, “ingredient based on the volume of the soil)” for “ingredient)”, “compound. […]” for “compound.”, “96” for “48”, “4” for “5”

| Compound | melting point [°C] | fungal infestation (Phytophthora on potato plants) (Phytophthora [1]) | fungal infestation (Plasmopara viticola on vines) (Plasmopara viticola) | fungal infestation (Phytophthora on tomato plants) (Phytophthora [2]) |
| --- | --- | --- | --- | --- |
| C#CCOc1ccc(CCNC(=O)C(=O)c2ccc(-c3ccc(Cl)cc3)cc2)cc1OC | 122 to 124 | – | – | – |
| COc1cc(CCNC(=O)[C@H](NC(=O)OC(C)(C)C)C(C)C)ccc1OCC#Cc1ccc(Cl)cc1 (stereo in doubt) | 141 to 142 | – | – | – |
| C#CCOc1ccc(CCNC(=O)C(O)c2ccc(Cl)c(Cl)c2)cc1OC (stereo not drawn) [Compound E1.01, 2-(3,4-Dichloro-phenyl)-2-hydroxy-N-[2-(3-methoxy-4-prop-2-ynyloxy-phenyl)-ethyl]-acetamide] | – | completely inhibit fungal infestation | completely inhibit fungal infestation | completely inhibit fungal infestation |
| CCC#CCOc1ccc(CCNC(=O)C(O)c2ccc(Cl)c(Cl)c2)cc1OC (stereo not drawn) [Compound E1.02, 2-(3,4-Dichloro-phenyl)-2-hydroxy-N-[2-(3-methoxy-4-pent-2-ynyloxy-phenyl)-ethyl]-acetamide] | – | completely inhibit fungal infestation | completely inhibit fungal infestation | completely inhibit fungal infestation |
| CCC#CCOc1ccc(CCNC(=O)C(=O)c2ccc(Cl)c(Cl)c2)cc1OC [Compound E2.02, 2-(3,4-Dichloro-phenyl)-N-[2-(3-methoxy-4-pent-2-ynyloxy-phenyl)-ethyl]-2-oxo-acetamide] | 94 to 95 | – | completely inhibit fungal infestation | completely inhibit fungal infestation |
| C#CCOc1ccc(CCNC(=O)C(O)c2ccc(-c3ccc(C(F)(F)F)cc3)cc2)cc1OC (stereo not drawn) [Compound E3.03, 2-(4′-Trifluoro-biphenyl-4-yl)-2-hydroxy-N-[2-(3-methoxy-4-prop-2-ynyloxy-phenyl)-ethyl]-acetamide] | – | – | completely inhibit fungal infestation | completely inhibit fungal infestation |
| C#CCOc1ccc(CCNC(=O)C(OC(=O)C(=O)OC)c2ccc(Br)cc2)cc1OC (stereo not drawn) [Compound E4.01, 2-(4-Bromo-phenyl)-2-methyloxalyloxy-N-[2-(3-methoxy-4-prop-2-ynyloxy-phenyl)-ethyl]-acetamide] | – | – | completely inhibit fungal infestation | completely inhibit fungal infestation |

Reference: US6469005B1, “Propargylether derivatives” (priority 1999, dated 2002)
